SMILES	melting point [°C]
CN(C)c1ccc(C(=O)Nc2nc(-c3ccco3)c(C(=O)C3CCOCC3)s2)cc1 [Compound 465, 4-(Dimethylamino)-N-[4-(2-furyl)-5-(tetrahydropyran-4-ylcarbonyl)thiazol-2-yl]benzamide]	238 to 240
O=C(Nc1nc(-c2ccco2)c(C(=O)C2CCOCC2)s1)c1ccccc1F [Compound 466, 2-Fluoro-N-[4-(2-furyl)-5-(tetrahydropyran-4-ylcarbonyl)thiazol-2-yl]benzamide]	172 to 176
O=C(Nc1nc(-c2ccco2)c(C(=O)C2CCOCC2)s1)c1cccc(F)c1 [Compound 467, 3-Fluoro-N-[4-(2-furyl)-5-(tetrahydropyran-4-ylcarbonyl)thiazol-2-yl]benzamide]	229 to 231
O=C(Nc1nc(-c2ccco2)c(C(=O)C2CCOCC2)s1)c1cccc(Cl)c1 [Compound 470, 3-Chloro-N-[4-(2-furyl)-5-(tetrahydropyran-4-ylcarbonyl)thiazol-2-yl]benzamide]	210 to 212
N#Cc1ccccc1C(=O)Nc1nc(-c2ccco2)c(C(=O)C2CCOCC2)s1 [Compound 472, 2-Cyano-N-[4-(2-furyl)-5-(tetrahydropyran-4-ylcarbonyl)thiazol-2-yl]benzamide]	221 to 224
N#Cc1cccc(C(=O)Nc2nc(-c3ccco3)c(C(=O)C3CCOCC3)s2)c1 [Compound 473, 3-Cyano-N-[4-(2-furyl)-5-(tetrahydropyran-4-ylcarbonyl)thiazol-2-yl]benzamide]	257 to 260
N#Cc1ccc(C(=O)Nc2nc(-c3ccco3)c(C(=O)C3CCOCC3)s2)cc1 [Compound 474, 4-Cyano-N-[4-(2-furyl)-5-(tetrahydropyran-4-ylcarbonyl)thiazol-2-yl]benzamide]	231 to 234
O=C(Nc1nc(-c2ccco2)c(C(=O)C2CCOCC2)s1)c1cccc(OC(F)(F)F)c1 [Compound 476, N-[4-(2-Furyl)-5-(tetrahydropyran-4-ylcarbonyl)thiazol-2-yl]-3-(trifluoromethoxy)benzamide]	197 to 198
O=C(Nc1nc(-c2ccco2)c(C(=O)C2CCOCC2)s1)c1ccc(CN2CCCCC2)cc1 [Compound 480, N-[4-(2-Furyl)-5-(tetrahydropyran-4-ylcarbonyl)thiazol-2-yl]-4-(piperidinomethyl)benzamide]	160 to 162
O=C(Nc1nc(-c2ccco2)c(C(=O)C2CCOCC2)s1)c1ccc(CN2CCC(O)CC2)cc1 [Compound 481, N-[4-(2-Furyl)-5-(tetrahydropyran-4-ylcarbonyl)thiazol-2-yl]-4-(4-hydroxypiperidinomethyl)benzamide]	194 to 195
O=C(Nc1nc(-c2ccco2)c(C(=O)C2CCOCC2)s1)c1ccc(CN2CCOCC2)cc1 [Compound 482, N-[4-(2-Furyl)-5-(tetrahydropyran-4-ylcarbonyl)thiazol-2-yl]-4-(morpholinomethyl)benzamide]	92 to 96
COc1cccc(C(=O)Nc2nc(-c3ccco3)c(C(=O)C3CCOCC3)s2)c1OC [Compound 483, N-[4-(2-Furyl)-5-(tetrahydropyran-4-ylcarbonyl)thiazol-2-yl]-2,3-dimethoxybenzamide]	198 to 200
COc1ccc(C(=O)Nc2nc(-c3ccco3)c(C(=O)C3CCOCC3)s2)c(OC)c1 [Compound 484, N-[4-(2-Furyl)-5-(tetrahydropyran-4-ylcarbonyl)thiazol-2-yl]-2,4-dimethoxybenzamide]	219 to 222
COc1ccc(C(=O)Nc2nc(-c3ccco3)c(C(=O)C3CCOCC3)s2)cc1OC [Compound 487, N-[4-(2-Furyl)-5-(tetrahydropyran-4-ylcarbonyl)thiazol-2-yl]-3,4-dimethoxybenzamide]	289 to 292
O=C(Nc1nc(-c2ccco2)c(C(=O)C2CCOCC2)s1)c1cccc(F)c1F [Compound 489, 2,3-Difluoro-N-[4-(2-furyl)-5-(tetrahydropyran-4-ylcarbonyl)thiazol-2-yl]benzamide]	154 to 160
O=C(Nc1nc(-c2ccco2)c(C(=O)C2CCOCC2)s1)c1ccc(F)cc1F [Compound 490, 2,4-Difluoro-N-[4-(2-furyl)-5-(tetrahydropyran-4-ylcarbonyl)thiazol-2-yl]benzamide]	213 to 215
O=C(Nc1nc(-c2ccco2)c(C(=O)C2CCOCC2)s1)c1cc(F)ccc1F [Compound 491, 2,5-Difluoro-N-[4-(2-furyl)-5-(tetrahydropyran-4-ylcarbonyl)thiazol-2-yl]benzamide]	172 to 174
O=C(Nc1nc(-c2ccco2)c(C(=O)C2CCOCC2)s1)c1c(F)cccc1F [Compound 492, 2,6-Difluoro-N-[4-(2-furyl)-5-(tetrahydropyran-4-ylcarbonyl)thiazol-2-yl]benzamide]	168 to 170
O=C(Nc1nc(-c2ccco2)c(C(=O)C2CCOCC2)s1)c1cccc2c1OCCO2 [Compound 495, N-[4-(2-Furyl)-5-(tetrahydropyran-4-ylcarbonyl)thiazol-2-yl]-1,4-benzodioxane-5-carboxamide]	188 to 190
O=C(Nc1nc(-c2ccco2)c(C(=O)C2CCOCC2)s1)c1ccc2c(c1)OCO2 [Compound 496, N-[4-(2-Furyl)-5-(tetrahydropyran-4-ylcarbonyl)thiazol-2-yl]-1,3-benzodioxole-5-carboxamide]	194 to 196
O=C(Nc1nc(-c2ccco2)c(C(=O)C2CCOCC2)s1)c1cccc2c1OC(F)(F)O2 [Compound 497, 2,2-Difluoro-N-[4-(2-furyl)-5-(tetrahydropyran-4-ylcarbonyl)thiazol-2-yl]-1,3-benzodioxole-4-carboxamide]	206 to 207
O=C(Nc1nc(-c2ccco2)c(C(=O)C2CCOCC2)s1)c1ccc2c(c1)OC(F)(F)O2 [Compound 498, 2,2-Difluoro-N-[4-(2-furyl)-5-(tetrahydropyran-4-ylcarbonyl)thiazol-2-yl]-1,3-benzodioxole-5-carboxamide]	124 to 129
O=C(Nc1nc(-c2ccco2)c(C(=O)C2CCOCC2)s1)c1ccnc(Cl)c1 [Compound 499, 2-Chloro-N-(4-(2-furyl)-5-(tetrahydropyran-4-ylcarbonyl)thiazol-2-yl]pyridine-4-carboxamide]	185 to 186
O=C(Nc1nc(-c2ccco2)c(C(=O)C2CCOCC2)s1)c1cccnc1 [Compound 501, N-[4-(2-Furyl)-5-(tetrahydropyran-4-ylcarbonyl)thiazol-2-yl]pyridine-3-carboxamide]	209 to 212
O=C(Nc1nc(-c2ccco2)c(C(=O)C2CCOCC2)s1)c1ccc(C(F)(F)F)nc1 [Compound 505, N-[4-(2-Furyl)-5-(tetrahydropyran-4-ylcarbonyl)thiazol-2-yl]-2-(trifluoromethyl)pyridine-5-carboxamide]	217 to 222

Continued, values first:

melting point [°C]	SMILES
160 to 162	O=C(Nc1nc(-c2ccco2)c(C(=O)C2CCOCC2)s1)c1ccccc1Cl [Compound 469, 2-Chloro-N-[4-(2-furyl)-5-(tetrahydropyran-4-ylcarbonyl)thiazol-2-yl]benzamide]
204 to 206	O=C(Nc1nc(-c2ccco2)c(C(=O)C2CCOCC2)s1)c1ccc(Cl)cc1 [Compound 471, 4-Chloro-N-[4-(2-furyl)-5-(tetrahydropyran-4-ylcarbonyl)thiazol-2-yl]benzamide]
131 to 134	O=C(Nc1nc(-c2ccco2)c(C(=O)C2CCOCC2)s1)c1ccccc1OC(F)(F)F [Compound 475, N-[4-(2-Furyl)-5-(tetrahydropyran-4-ylcarbonyl)thiazol-2-yl]-2-(trifluoromethoxy)benzamide]
177 to 180	O=C(Nc1nc(-c2ccco2)c(C(=O)C2CCOCC2)s1)c1ccc(OC(F)(F)F)cc1 [Compound 477, N-[4-(2-Furyl)-5-(tetrahydropyran-4-ylcarbonyl)thiazol-2-yl]-4-(trifluoromethoxy)benzamide]
109 to 112	CN(C)Cc1ccc(C(=O)Nc2nc(-c3ccco3)c(C(=O)C3CCOCC3)s2)cc1 [Compound 479, 4-(Dimethylaminomethyl)-N-[4-(2-furyl)-5-(tetrahydropyran-4-ylcarbonyl)thiazol-2-yl]benzamide]
107 to 110	COc1ccc(OC)c(C(=O)Nc2nc(-c3ccco3)c(C(=O)C3CCOCC3)s2)c1 [Compound 485, N-[4-(2-Furyl)-5-(tetrahydropyran-4-ylcarbonyl)thiazol-2-yl]-2,5-dimethoxybenzamide]
152 to 156	COc1cccc(OC)c1C(=O)Nc1nc(-c2ccco2)c(C(=O)C2CCOCC2)s1 [Compound 486, N-[4-(2-Furyl)-5-(tetrahydropyran-4-ylcarbonyl)thiazol-2-yl]-2,6-dimethoxybenzamide]
278 to 280	COc1cc(OC)cc(C(=O)Nc2nc(-c3ccco3)c(C(=O)C3CCOCC3)s2)c1 [Compound 488, N-[4-(2-Furyl)-5-(tetrahydropyran-4-ylcarbonyl)thiazol-2-yl]-3,5-dimethoxybenzamide]
208 to 210	O=C(Nc1nc(-c2ccco2)c(C(=O)C2CCOCC2)s1)c1ccc(F)c(F)c1 [Compound 493, 3,4-Difluoro-N-[4-(2-furyl)-5-(tetrahydropyran-4-ylcarbonyl)thiazol-2-yl]benzamide]
259 to 265	O=C(Nc1nc(-c2ccco2)c(C(=O)C2CCOCC2)s1)c1cc(F)cc(F)c1 [Compound 494, 3,5-Difluoro-N-[4-(2-furyl)-5-(tetrahydropyran-4-ylcarbonyl)thiazol-2-yl]benzamide]
169 to 173	Cc1cc(C(=O)Nc2nc(-c3ccco3)c(C(=O)C3CCOCC3)s2)ccn1 [Compound 500, N-[4-(2-Furyl)-5-(tetrahydropyran-4-ylcarbonyl)thiazol-2-yl]-2-methylpyridine-4-carboxamide]
166 to 170	O=C(Nc1nc(-c2ccco2)c(C(=O)C2CCOCC2)s1)c1ccc(N2CCOCC2)nc1 [Compound 503, N-[4-(2-Furyl)-5-(tetrahydropyran-4-ylcarbonyl)thiazol-2-yl]-2-morpholinopyridine-5-carboxamide]
